Assay results published in patent publication CN105732584A, “一种达比加群酯2-酮戊二酸盐晶型i及其制备方法和用途” (Tianjin Institute of Pharmaceutical Research Co Ltd, priority 2014, dated 2016).
Values after ≈ are worked out from the molar mass of the structure shown.

Columns and labels:
Type in all cases: physicochemical
[1] = Stability test (stress factors): content determination by HPLC
[2] = Stability test (stress factors): change of appearance
[3] = Solubility in water at 25℃; conditions: H2O
[4] = 7 days, high temperature and high humidity
[5] = high temperature and high humidity

SMILES	content remaining [1, 4] [%]	stability (in words) [1, 5]	remaining at 168 h ([1]; high temperature and humidity storage, 7 days, high temperature and high humidity) [%]	change of colour/appearance (in words) [2, 5]	moisture absorption (in words) ([2]; high temperature and high humidity, concluded from colour change and caking)	change of colour/appearance (in words) ([2]; sealed, high temperature)	solubility [3] [µg/mL]	change of content with time (in words) ([1]; sealed high temperature, and high temperature with high humidity)
CCCCCCOC(=O)NC(=N)c1ccc(NCc2nc3cc(C(=O)N(CCC(=O)OCC)c4ccccn4)ccc3n2C)cc1 [达比加群酯甲磺酸盐]	< 20	极不稳定	< 20	颜色变化很明显且出现板结现象	吸潮严重	颜色随时间产生明显变化	1800 (≈ 2870 µM)	–
CCCCCCOC(=O)N=C(N)c1ccc(NCc2nc3cc(C(=O)N(CCC(=O)OCC)c4ccccn4)ccc3n2C)cc1.O=C(O)CCC(=O)C(=O)O [达比加群酯2-酮戊二酸盐晶型I, 3-[[[2-[[[4-[[[(己氧基)羰基]氨基]亚氨甲基]苯基]氨基]甲基]-1-甲基-1H-苯并咪唑-5-基]羰基](吡啶-2-基)氨基]丙酸乙酯2-酮戊二酸盐]	~98	–	–	颜色虽有变化但不大	–	颜色几乎无变化	–	含量随时间变化较小
